From PubChem BioAssay AID328 (DTP/NCI, 2004)
Where “and” joins values, the source holds several entries; their conditions need not be identical. Identical values can stand only once. Toxic doses and inconclusive results are not listed.

System: BDF1 mice, P388 leukemia ip, median survival T/C
Assay: NCI In Vivo Anticancer Drug Screen. Data for tumor model P388 Leukemia (intraperitoneal) in B6D2F1 (BDF1) mice
Conditions: endpoint: median survival time, higher = longer survival
In short: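 In tumour-bearing mice, survival after compound treatment is set against the vehicle group and given as a quotient.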

[1] = dose: 50.0 mg/kg/injection, schedule: Q01DX009 (ip), vehicle: saline
[2] = dose: 100.0 mg/kg/injection, schedule: Q01DX009 (ip), vehicle: saline
[3] = dose: 100.0 mg/kg/injection, schedule: Q04DX003 (ip), vehicle: saline
[4] = dose: 200.0 mg/kg/injection, schedule: Q01DX009 (ip), vehicle: saline
[5] = dose: 200.0 mg/kg/injection, schedule: Q04DX003 (ip), vehicle: saline
[6] = dose: 100.0 mg/kg/injection, schedule: Q04DX003 (ip), vehicle: saline with Tween-80
[7] = dose: 25.0 mg/kg/injection, schedule: Q01DX009 (ip), vehicle: saline
[8] = dose: 50.0 mg/kg/injection, schedule: Q01DX009 (ip), vehicle: saline with Tween-80
[9] = dose: 100.0 mg/kg/injection, schedule: Q01DX009 (ip), vehicle: saline with Tween-80
[10] = dose: 50.0 mg/kg/injection, schedule: Q04DX003 (ip), vehicle: saline with Tween-80

## O=C(O)c1occ(Cl)c1Cl
dose: 0.78 mg/kg/injection, schedule: Q01DX009 (ip), vehicle: water
  T/C: 100 % of control
dose: 1.56 mg/kg/injection, schedule: Q01DX009 (ip), vehicle: water
  T/C: 98 % of control
dose: 3.12 mg/kg/injection, schedule: Q01DX009 (ip), vehicle: water
  T/C: 97 % of control
dose: 6.25 mg/kg/injection, schedule: Q01DX009 (ip), vehicle: water
  T/C: 97 % of control
dose: 12.5 mg/kg/injection, schedule: Q01DX009 (ip), vehicle: water
  T/C: 94 % of control
dose: 25.0 mg/kg/injection, schedule: Q01DX009 (ip), vehicle: water
  T/C: 94 % of control
dose: 50.0 mg/kg/injection, schedule: Q01DX009 (ip), vehicle: water
  T/C: 106 % of control
dose: 50.0 mg/kg/injection, schedule: Q04DX003 (ip), vehicle: water
  T/C: 96 % of control
dose: 100.0 mg/kg/injection, schedule: Q04DX003 (ip), vehicle: water
  T/C: 104 % of control
dose: 200.0 mg/kg/injection, schedule: Q04DX003 (ip), vehicle: water
  T/C: 119 % of control

## O=C(O)CCCC1CCC(=O)CC1
[1]
  T/C: 90 % of control
dose: 100.0 mg/kg/injection, schedule: Q01DX001 (ip), vehicle: other
  T/C: 95 % of control
[2]
  T/C: 90 % of control
[3]
  T/C: 104 % of control
dose: 200.0 mg/kg/injection, schedule: Q01DX001 (ip), vehicle: other
  T/C: 104 % of control
[4]
  T/C: 110 % of control
[5]
  T/C: 104 % of control
dose: 400.0 mg/kg/injection, schedule: Q01DX001 (ip), vehicle: other
  T/C: 120 % of control
dose: 400.0 mg/kg/injection, schedule: Q01DX009 (ip), vehicle: saline
  T/C: 110 % of control
dose: 400.0 mg/kg/injection, schedule: Q04DX003 (ip), vehicle: saline
  T/C: 109 % of control

## O=CNc1ccc(O)cc1
[6]
  T/C: 104 % of control
dose: 200.0 mg/kg/injection, schedule: Q04DX003 (ip), vehicle: saline with Tween-80
  T/C: 104 % of control
dose: 400.0 mg/kg/injection, schedule: Q04DX003 (ip), vehicle: saline with Tween-80
  T/C: 100 % of control

## COc1ccc(Cc2nccc3c(OC)c(OC)ccc23)cc1OC
[7]
  T/C: 116 % of control
[1]
  T/C: 106 % of control and 119 % of control
dose: 50.0 mg/kg/injection, schedule: Q04DX003 (ip), vehicle: saline
  T/C: 103 % of control
dose: 75.0 mg/kg/injection, schedule: Q01DX009 (ip), vehicle: saline
  T/C: 119 % of control
[2]
  T/C: 119 % of control
[3]
  T/C: 103 % of control
[4]
  T/C: 87 % of control
[5]
  T/C: 87 % of control

## Nc1nc(SN=Nc2ccc(S(=O)(=O)O)cc2)c2[nH]cnc2n1
dose: 4.0 mg/kg/injection, schedule: Q01DX009 (ip), vehicle: Klucel (hydroxypropylcellulose) (HPC)
  T/C: 113 % of control
dose: 9.0 mg/kg/injection, schedule: Q01DX009 (ip), vehicle: Klucel (hydroxypropylcellulose) (HPC)
  T/C: 121 % of control
dose: 20.0 mg/kg/injection, schedule: Q04DX003 (ip), vehicle: Klucel (hydroxypropylcellulose) (HPC)
  T/C: 108 % of control
dose: 30.0 mg/kg/injection, schedule: Q04DX003 (ip), vehicle: Klucel (hydroxypropylcellulose) (HPC)
  T/C: 120 % of control
dose: 45.0 mg/kg/injection, schedule: Q04DX003 (ip), vehicle: Klucel (hydroxypropylcellulose) (HPC)
  T/C: 112 % of control
dose: 66.0 mg/kg/injection, schedule: Q04DX003 (ip), vehicle: saline
  T/C: 122 % of control
[3]
  T/C: 118 % of control
dose: 150.0 mg/kg/injection, schedule: Q04DX003 (ip), vehicle: Klucel (hydroxypropylcellulose) (HPC)
  T/C: 115 % of control
dose: 150.0 mg/kg/injection, schedule: Q04DX003 (ip), vehicle: saline
  T/C: 113 % of control
dose: 200.0 mg/kg/injection, schedule: Q04DX003 (ip), vehicle: Klucel (hydroxypropylcellulose) (HPC)
  T/C: 116 % of control

## CCOC(=O)c1oc2ccccc2c1CN
[8]
  T/C: 107 % of control
[9]
  T/C: 107 % of control

## COc1cccc2c1C(=O)c1c(O)c3c(c(O)c1C2=O)C[C@@](O)(/C(C)=N\NC=O)C[C@@H]3OC1CC(N)C(O)C(C)O1 (stereo partly drawn)
dose: 1.0 mg/kg/injection, schedule: Q01DX009 (ip), vehicle: saline
  T/C: 96 % of control
dose: 2.0 mg/kg/injection, schedule: Q01DX009 (ip), vehicle: saline
  T/C: 107 % of control
dose: 16.0 mg/kg/injection, schedule: Q01DX009 (ip), vehicle: saline
  T/C: 180 % of control

## COc1cc(NC(N)=O)cc(OC)c1OC
dose: 18.75 mg/kg/injection, schedule: Q04DX003 (ip), vehicle: saline sonified
  T/C: 100 % of control
dose: 37.5 mg/kg/injection, schedule: Q04DX003 (ip), vehicle: saline sonified
  T/C: 86 % of control
dose: 75.0 mg/kg/injection, schedule: Q04DX003 (ip), vehicle: saline sonified
  T/C: 100 % of control

## COC(=O)C12Oc3ccc(-c4ccc5c(c4O)C(O)=C4C(=O)CC(C)C(O)C4(C(=O)OC)O5)c(O)c3C(O)=C1C(=O)CC(C)C2O (stereo not drawn)
dose: 0.39 mg/kg/injection, schedule: Q01DX009 (ip), vehicle: saline with Tween-80
  T/C: 100 % of control
dose: 0.78 mg/kg/injection, schedule: Q01DX009 (ip), vehicle: saline with Tween-80
  T/C: 109 % of control
dose: 0.78 mg/kg/injection, schedule: Q01DX009 (ip), vehicle: saline
  T/C: 100 % of control
dose: 1.56 mg/kg/injection, schedule: Q01DX009 (ip), vehicle: saline with Tween-80
  T/C: 104 % of control and 109 % of control
dose: 3.13 mg/kg/injection, schedule: Q01DX009 (ip), vehicle: saline with Tween-80
  T/C: 104 % of control and 109 % of control
dose: 3.13 mg/kg/injection, schedule: Q01DX009 (ip), vehicle: saline
  T/C: 93 % of control
dose: 6.25 mg/kg/injection, schedule: Q01DX009 (ip), vehicle: saline with Tween-80
  T/C: 101 % of control

## CC1CNC2C(C)C3C(CC4C5CCC6CC(N)CCC6(C)C5CCC43C)OC2(O)C1 (stereo not drawn)
dose: 12.5 mg/kg/injection, schedule: Q04DX003 (ip), vehicle: saline with Tween-80
  T/C: 112 % of control
dose: 25.0 mg/kg/injection, schedule: Q04DX003 (ip), vehicle: saline with Tween-80
  T/C: 100 % of control
[10]
  T/C: 91 % of control

## CC1=C(Cc2ccccc2)C(C)(C)CCC1
[8]
  T/C: 103 % of control
[9]
  T/C: 112 % of control
dose: 200.0 mg/kg/injection, schedule: Q01DX009 (ip), vehicle: saline with Tween-80
  T/C: 121 % of control

## CN(N=O)C(=O)NNC(=O)N(C)N=O
dose: 40.0 mg/kg/injection, schedule: Q04DX003 (ip), vehicle: saline with Tween-80
  T/C: 105 % of control
dose: 60.0 mg/kg/injection, schedule: Q04DX003 (ip), vehicle: saline with Tween-80
  T/C: 115 % of control
dose: 90.0 mg/kg/injection, schedule: Q04DX003 (ip), vehicle: saline with Tween-80
  T/C: 105 % of control

## NC(N)=N/N=C(/c1ccccc1)c1ccc(F)cc1
dose: 1.2 mg/kg/injection, schedule: Q01DX009 (ip), vehicle: Klucel (hydroxypropylcellulose) (HPC)
  T/C: 115 % of control
dose: 5.0 mg/kg/injection, schedule: Q01DX009 (ip), vehicle: Klucel (hydroxypropylcellulose) (HPC)
  T/C: 104 % of control and 105 % of control
dose: 5.0 mg/kg/injection, schedule: Q01DX009 (ip), vehicle: saline
  T/C: 95 % of control
dose: 10.0 mg/kg/injection, schedule: Q01DX009 (ip), vehicle: Klucel (hydroxypropylcellulose) (HPC)
  T/C: 100 % of control and 109 % of control
dose: 10.0 mg/kg/injection, schedule: Q01DX009 (ip), vehicle: saline
  T/C: 100 % of control
dose: 20.0 mg/kg/injection, schedule: Q01DX009 (ip), vehicle: saline
  T/C: 112 % of control

## C=C1C(=O)OC(C)(C)C1(C)C
dose: 12.5 mg/kg/injection, schedule: Q01DX009 (ip), vehicle: saline
  T/C: 105 % of control
[7]
  T/C: 98 % of control
[1]
  T/C: 86 % of control and 88 % of control

## FC(F)c1nc2nc(Cl)c(Cl)nc2[nH]1
dose: 12.5 mg/kg/injection, schedule: Q01DX009 (ip), vehicle: saline with Tween-80
  T/C: 110 % of control
[8]
  T/C: 120 % of control
[10]
  T/C: 100 % of control
dose: 75.0 mg/kg/injection, schedule: Q01DX009 (ip), vehicle: saline with Tween-80
  T/C: 103 % of control
[6]
  T/C: 109 % of control

## N#CC(C#N)=Cc1cccc([N+](=O)[O-])c1
dose: 25.0 mg/kg/injection, schedule: Q01DX009 (ip), vehicle: Klucel (hydroxypropylcellulose) (HPC)
  T/C: 90 % of control and 115 % of control
dose: 50.0 mg/kg/injection, schedule: Q04DX003 (ip), vehicle: Klucel (hydroxypropylcellulose) (HPC)
  T/C: 113 % of control
dose: 100.0 mg/kg/injection, schedule: Q01DX009 (ip), vehicle: Klucel (hydroxypropylcellulose) (HPC)
  T/C: 95 % of control
dose: 100.0 mg/kg/injection, schedule: Q04DX003 (ip), vehicle: Klucel (hydroxypropylcellulose) (HPC)
  T/C: 113 % of control
